The assay addresses T1, KRas-G12D (Homo sapiens, UniProt P01116, G12D).
T1 construct: insert the HiBiT tag onto the N-terminus of one or more of the endogenous KRas alleles; host or cells: AsPC-1 HiBiT-KRasG12D knock-in clone (one tagged allele, two untagged KRasG12D alleles)
The assay is described as follows: HiBiT Degradation Assay (G12D), AsPC-1 HiBiT-KRasG12D cells, 24 hr. It is filed as cell-based. The settings on record: for Dmax: ASPC1, AsPC-1 cells, maximum degradation observed; for DC50: AsPC-1 cells. In outline:
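Degradation was read after 24 hr compound exposure (0.5% DMSO, 37° C) by Nano-Glo HiBiT lytic luminescence in AsPC-1 cells carrying a HiBiT tag on one of three KRasG12D alleles. Signal relative to DMSO gave DC50 and Dmax by 4-parameter fit; alamar blue fluorescence monitored cytotoxicity.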

From patent US12448399B2, “Cereblon-based KRAS degrading PROTACs and uses related thereto” (Arvinas Operations, Inc., priority 2023, dated 2025) come the findings set out here.

T1 sequence (P01116 1-188 isoform P01116-2 G12D): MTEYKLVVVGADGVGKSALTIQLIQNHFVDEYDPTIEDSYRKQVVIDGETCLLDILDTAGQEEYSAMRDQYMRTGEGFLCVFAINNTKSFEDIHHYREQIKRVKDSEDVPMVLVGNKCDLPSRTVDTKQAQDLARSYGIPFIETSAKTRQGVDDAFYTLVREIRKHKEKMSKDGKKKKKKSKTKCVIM

Turning to `C#Cc1c(F)ccc2cc(O)cc(-c3ncc4c(N5CC6CCC(C5)N6)nc(OCCN5CCC6(CC5)CCN(CC5CCN(c7ccc8c(c7)n(C)c(=O)n8C7CCC(=O)NC7=O)CC5)CC6)nc4c3F)c12` (stereo not shown) [Compound 218, 3-(5-{4-[(9-{2-[(4-{3,8-diazabicyclo[3.2.1]octan-3-yl}-7-(8-ethynyl-7-fluoro-3-hydroxynaphthalen-1-yl)-8-fluoropyrido[4,3-d]pyrimidin-2-yl)oxy]ethyl}-3,9-diazaspiro[5.5]undecan-3-yl)methyl]piperidin-1-yl}-3-methyl-2-oxo-2,3-dihydro-1H-1,3-benzodiazol-1-yl)piperidine-2,6-dione], the Dmax (in general, the greatest extent of degradation seen) was greater than 70% and the half-maximal degradation concentration (DC50) (in general, the midpoint of the concentration-degradation curve) was less than 5.1 µM. In the same order, the values of `C#Cc1c(F)ccc2cc(O)cc(-c3ncc4c(N5CC6CCC(C5)N6)nc(OCCN5CCC(CN6CCN(CC7CCN(c8ccc9c(c8Cl)CN(C8CCC(=O)NC8=O)C9=O)CC7)CC6)CC5)nc4c3F)c12` (stereo not shown) [Compound 219, 3-[4-chloro-5-[4-[[4-[[1-[2-[4-(3,8-diazabicyclo[3.2.1]octan-3-yl)-7-(8-ethynyl-7-fluoro-3-hydroxy-1-naphthyl)-8-fluoro-pyrido[4,3-d]pyrimidin-2-yl]oxyethyl]-4-piperidyl]methyl]piperazin-1-yl]methyl]-1-piperidyl]-1-oxo-isoindolin-2-yl]piperidine-2,6-dione] are greater than 70% and less than 5.1 µM. In the same order, the values of `C#Cc1c(F)ccc2cc(O)cc(-c3ncc4c(N5CC6CCC(C5)N6)nc(OCCN5CCC6(CC5)CCN(CC5CCN(c7ccc8c(c7Cl)CN(C7CCC(=O)NC7=O)C8=O)CC5)CC6)nc4c3F)c12` (stereo not shown) [Compound 220, 3-(4-chloro-5-{4-[(9-{2-[(4-{3,8-diazabicyclo[3.2.1]octan-3-yl}-7-(8-ethynyl-7-fluoro-3-hydroxynaphthalen-1-yl)-8-fluoropyrido[4,3-d]pyrimidin-2-yl)oxy]ethyl}-3,9-diazaspiro[5.5]undecan-3-yl)methyl]piperidin-1-yl}-1-oxo-2,3-dihydro-1H-isoindol-2-yl)piperidine-2,6-dione] are greater than 70% and less than 5.1 µM. The matching figures for `C#Cc1c(F)ccc2cc(O)cc(-c3ncc4c(N5CC6CCC(C5)N6)nc(OCCN5CCC(CN6CCN(CC7CCN(c8ccc9c(c8)n(C)c(=O)n9C8CCC(=O)NC8=O)CC7)CC6)CC5)nc4c3F)c12` (stereo not shown) [Compound 221, 3-{5-[4-({4-[(1-{2-[(4-{3,8-diazabicyclo[3.2.1]octan-3-yl}-7-(8-ethynyl-7-fluoro-3-hydroxynaphthalen-1-yl)-8-fluoropyrido[4,3-d]pyrimidin-2-yl)oxy]ethyl}piperidin-4-yl)methyl]piperazin-1-yl}methyl)piperidin-1-yl]-3-methyl-2-oxo-2,3-dihydro-1H-1,3-benzodiazol-1-yl}piperidine-2,6-dione]: greater than 70% and less than 5.1 µM. The compound `C#Cc1c(F)ccc2cc(O)cc(-c3ncc4c(N5CC6CCC(C5)N6)nc(OCCN5CCC(CN6CCN(CC7CCN(c8ccc9c(c8)n(C(C)C)c(=O)n9C8CCC(=O)NC8=O)CC7)CC6)CC5)nc4c3F)c12` (stereo not shown) [Compound 222, 3-{5-[4-({4-[(1-{2-[(4-{3,8-diazabicyclo[3.2.1]octan-3-yl}-7-(8-ethynyl-7-fluoro-3-hydroxynaphthalen-1-yl)-8-fluoropyrido[4,3-d]pyrimidin-2-yl)oxy]ethyl}piperidin-4-yl)methyl]piperazin-1-yl}methyl)piperidin-1-yl]-2-oxo-3-(propan-2-yl)-2,3-dihydro-1H-1,3-benzodiazol-1-yl}piperidine-2,6-dione] returned a Dmax greater than 70% and a half-maximal degradation concentration (DC50) of less than 5.1 µM. In the same order, the values of `C#Cc1c(F)ccc2cc(O)cc(-c3ncc4c(N5CC6CCC(C5)N6)nc(OCCN5CCC(CN6CCC(CN7CCN(c8ccc9c(c8F)CN(C8CCC(=O)NC8=O)C9=O)CC7)CC6)CC5)nc4c3F)c12` (stereo not shown) [Compound 223, 3-{5-[4-({1-[(1-{2-[(4-{3,8-diazabicyclo[3.2.1]octan-3-yl}-7-(8-ethynyl-7-fluoro-3-hydroxynaphthalen-1-yl)-8-fluoropyrido[4,3-d]pyrimidin-2-yl)oxy]ethyl}piperidin-4-yl)methyl]piperidin-4-yl}methyl)piperazin-1-yl]-4-fluoro-1-oxo-2,3-dihydro-1H-isoindol-2-yl}piperidine-2,6-dione] are greater than 70% and less than 5.1 µM.

The compound `C#Cc1c(F)ccc2cc(O)cc(-c3ncc4c(N5CC6CCC(C5)N6)nc(OC[C@@H]5C[C@@H](OC6CCN(CC7CCN(c8ccc9c(c8F)n(C(C)C)c(=O)n9C8CCC(=O)NC8=O)CC7)CC6)CN5C)nc4c3F)c12` (stereo partly drawn) [Compound 224, 3-(5-{4-[(4-{[(3R,5S)-5-{[(4-{3,8-diazabicyclo[3.2.1]octan-3-yl}-7-(8-ethynyl-7-fluoro-3-hydroxynaphthalen-1-yl)-8-fluoropyrido[4,3-d]pyrimidin-2-yl)oxy]methyl}-1-methylpyrrolidin-3-yl]oxy}piperidin-1-yl)methyl]piperidin-1-yl}-4-fluoro-2-oxo-3-(propan-2-yl)-2,3-dihydro-1H-1,3-benzodiazol-1-yl)piperidine-2,6-dione] came in with a Dmax greater than 70% and a DC50 of less than 5.1 µM. Regarding `C#Cc1c(F)ccc2cc(O)cc(-c3ccc4c(N5CC6CCC(C5)N6)nc(OCCN5CCN(CC6CCN(CC7CCN(c8ccc9c(c8)n(C)c(=O)n9C8CCC(=O)NC8=O)CC7)CC6)CC5(C)C)nc4c3F)c12` (stereo not shown) [Compound 227], the DC50 was less than 5.1 µM. On the same count and under the same terms, then `C#Cc1c(F)ccc2cccc(-c3ncc4c(N5CC6CCC(C5)N6)nc(OCC5(CN6CCC(F)(CN7CCN(c8ccc9c(c8)n(C)c(=O)n9C8CCC(=O)NC8=O)CC7)CC6)CC5)nc4c3F)c12` (stereo not shown) [Compound 228, 3-[5-[4-[[1-[[1-[[4-(3,8-diazabicyclo[3.2.1]octan-3-yl)-7-(8-ethynyl-7-fluoro-1-naphthyl)-8-fluoro-pyrido[4,3-d]pyrimidin-2-yl]oxymethyl]cyclopropyl]methyl]-4-fluoro-4-piperidyl]methyl]piperazin-1-yl]-3-methyl-2-oxo-benzimidazol-1-yl]piperidine-2,6-dione], with less than 5.1 µM. As to `C#Cc1c(F)ccc2cc(O)cc(-c3ncc4c(N5CC6CCC(C5)N6)nc(OCC5(CN6CCC(CC7CCN(CC8CN(c9ccc%10c(c9)n(C)c(=O)n%10C9CCC(=O)NC9=O)C8)CC7)CC6)CC5)nc4c3F)c12` (stereo not shown) [Compound 229, 3-[5-[3-[[4-[[1-[[1-[[4-(3,8-diazabicyclo[3.2.1]octan-3-yl)-7-(8-ethynyl-7-fluoro-3-hydroxy-1-naphthyl)-8-fluoro-pyrido[4,3-d]pyrimidin-2-yl]oxymethyl]cyclopropyl]methyl]-4-piperidyl]methyl]-1-piperidyl]methyl]azetidin-1-yl]-3-methyl-2-oxo-benzimidazol-1-yl]piperidine-2,6-dione], the Dmax was greater than 70% and the DC50 was less than 5.1 µM. For the compound `C#Cc1c(F)ccc2cc(O)cc(-c3ncc4c(N5CC6CCC(C5)N6)nc(CCCN5CCC(CC6CCN(CC7CCN(c8ccc9c(c8)n(C)c(=O)n9C8CCC(=O)NC8=O)CC7)CC6)CC5)nc4c3F)c12` (stereo not shown) [Compound 230, 3-[5-[4-[[4-[[1-[3-[4-(3,8-diazabicyclo[3.2.1]octan-3-yl)-7-(8-ethynyl-7-fluoro-3-hydroxy-1-naphthyl)-8-fluoro-pyrido[4,3-d]pyrimidin-2-yl]propyl]-4-piperidyl]methyl]-1-piperidyl]methyl]-1-piperidyl]-3-methyl-2-oxo-benzimidazol-1-yl]piperidine-2,6-dione], the DC50 is less than 5.1 µM.
